Measured values as given in patent US20260176320A1, “MODULATORS OF G-PROTEIN COUPLED RECEPTORS” (priority 2018, published 2026).
Like-named read-outs stand apart in the source and are kept apart here. Square brackets hold non-standard residues; d marks the D form. Peptide text beside a SMILES is read from it. * marks the point of attachment. X1 = O=C(CSCC(=O)*)NCCN1C(=O)c2ccccc2C1=O; Aib = CC(C)(N)C(=O)O

Columns and labels:
[1] = biological target: T1, GLP-1R (Homo sapiens, UniProt P43220); assay: HitHunter cAMP assay (GLP-1R); assay type: cell-based; conditions: cAMP; for Emax: read-out: (Emax) GLP-1R
Procedure, shortened: (§1)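 Suspension cells expressing each receptor (10,000 per well) in HBSS with 10 mM HEPES, 625 μM IBMX and 0.2% BSA were treated with a 22-point 2-fold agonist series in duplicate for 30 minutes at room temperature. cAMP was detected by antibody immunocompetition with luminescence read after overnight incubation.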

[2] = test system: mice; assay: Glucose tolerance test (GTT); assay type: in vivo, mouse; conditions: 24 h GTT, s.c., dose range 2-5 nmol/kg, percent of vehicle
Experimental: Freestyle Lite glucometer and strips; compounds to be tested; sterilized glucose solution 200 mg/ml.
Compounds were diluted in PBS from the 1 mM DMSO stocks right before injection. Body weight and baseline blood glucose level for each mouse were measured. Tails were snipped using sterile scissors; blood from tails was used to measure glucose. For 0.25 h GTT, mice were fasted for 5-6 h and injected with compound subcutaneously 15 mins before glucose injection. For 4 h GTT, mice were fasted O/N for 16 h and injected with compound subcutaneously 4 h before glucose injection. For 16 h GTT, mice were injected with compound subcutaneously 16 h before glucose injection; food was removed at the same time. For 24 h GTT, mice were injected with compound subcutaneously 24 h before glucose injection; food was removed 5-6 h before glucose injection. 20% glucose in water was prepared; the solution was sterilized by 0.2 μm-filtration. An intraperitoneal injection of glucose (2 g/kg) was given to the mouse. Continued to take blood samples from the tail. Blood glucose was measured at 10, 20, 30, 40, 60, 90, and 120 minutes after glucose injection. Between each of these time points, the mouse was returned to its cage and monitored (at least 6 replicate mice were used for each time-point). The average glucose measurements were plotted as a function of time and the area under the curve (AUC) was determined.

[3] = biological target: T2, GIP-R (Homo sapiens, UniProt P48546); assay: HitHunter cAMP assay (GIP-R); assay type: cell-based
T2 sequence (P48546 22-466): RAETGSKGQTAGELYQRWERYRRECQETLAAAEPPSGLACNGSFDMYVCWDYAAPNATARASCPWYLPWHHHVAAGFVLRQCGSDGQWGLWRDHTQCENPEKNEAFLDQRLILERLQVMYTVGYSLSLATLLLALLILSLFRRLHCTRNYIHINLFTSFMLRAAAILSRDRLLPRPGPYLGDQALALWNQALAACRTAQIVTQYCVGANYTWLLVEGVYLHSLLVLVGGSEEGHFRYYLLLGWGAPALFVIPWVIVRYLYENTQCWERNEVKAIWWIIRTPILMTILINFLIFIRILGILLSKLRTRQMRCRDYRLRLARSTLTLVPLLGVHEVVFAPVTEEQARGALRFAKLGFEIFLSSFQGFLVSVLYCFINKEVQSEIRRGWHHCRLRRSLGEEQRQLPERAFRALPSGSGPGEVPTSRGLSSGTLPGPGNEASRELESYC
Procedure, shortened: as §1

[4] = biological target: T1, GLP-1R; assay: PathHunter β-arrestin assay; assay type: cell-based
Procedure, shortened: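 Cells seeded overnight, then medium replaced with medium containing 0.2% BSA; agonists added as 22-point 2-fold DMSO dilution series in duplicate and incubated 90 min at 37 °C, 5% CO2. After addition of detection solution, plates sat 3 h at room temperature in the dark; luminescence read.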

[5] = Table 3, read-out: EC50 GLP-1R/nM
[6] = Table 3A, read-out: EC50 GLP-1R/nM
[7] = Table 3; cAMP; read-out: (Emax) GIP-R
[8] = Table 3; cAMP; read-out: EC50 GIP-R/nM
[9] = Table 3A; cAMP; read-out: (Emax) GIP-R
[10] = Table 3A; cAMP; read-out: EC50 GIP-R/nM
[11] = PathHunter β-arrestin assay, read-out: β-arrestin activity EC50

T1 sequence (P43220 24-463): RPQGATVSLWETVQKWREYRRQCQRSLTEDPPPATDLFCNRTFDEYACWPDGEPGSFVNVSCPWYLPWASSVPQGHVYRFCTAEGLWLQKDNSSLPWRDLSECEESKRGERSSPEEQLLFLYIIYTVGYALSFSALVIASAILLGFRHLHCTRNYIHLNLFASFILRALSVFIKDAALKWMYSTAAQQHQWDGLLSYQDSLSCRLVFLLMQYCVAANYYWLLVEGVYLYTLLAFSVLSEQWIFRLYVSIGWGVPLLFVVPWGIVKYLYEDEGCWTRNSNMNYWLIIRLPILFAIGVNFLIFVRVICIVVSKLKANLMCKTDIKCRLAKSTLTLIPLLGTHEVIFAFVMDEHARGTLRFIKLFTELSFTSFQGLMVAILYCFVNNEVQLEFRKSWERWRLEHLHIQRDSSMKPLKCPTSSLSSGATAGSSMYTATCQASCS

Structure (SMILES)	Emax ([1]; Table 3)	EC50 [1, 5]	Emax ([1]; Table 3A)	EC50 [1, 6]	AUC score [2]	Emax [3, 7]	EC50 [3, 8]	Emax [3, 9]	EC50 [3, 10]	EC50 [4, 11]	EC50 ([1]; EC50 GLP-1R/nM, Table 3)	EC50 ([1]; EC50 GLP-1R/nM, Table 3A)	EC50 ([3]; read-out: EC50 GIP-R/nM; Table 3; cAMP)	EC50 ([3]; read-out: EC50 GIP-R/nM; Table 3A; cAMP)	EC50 [4]
CCCCCCCCCCCCCCCC(=O)N[C@@H](CCC(=O)NCCCC[C@H](NC(=O)[C@H](CO)NC(=O)[C@@H]1CCCN1C(=O)[C@@H]1CCCN1C(=O)[C@@H]1CCCN1C(=O)[C@H](C)NC(=O)CNC(=O)[C@H](CO)NC(=O)[C@H](CO)NC(=O)[C@@H]1CCCN1C(=O)CNC(=O)CNC(=O)[C@H](C)NC(=O)[C@H](CC(C)C)NC(=O)[C@H](CC(C)C)NC(=O)[C@H](Cc1c[nH]c2ccccc12)NC(=O)[C@H](CC(N)=O)NC(=O)[C@@H](NC(=O)[C@H](Cc1ccccc1)NC(=O)[C@H](CCC(=O)O)NC(=O)C(C)(C)NC(=O)[C@H](C)NC(=O)[C@H](C)NC(=O)[C@H](CCC(N)=O)NC(=O)[C@H](CCCCN)NC(=O)[C@H](CC(=O)O)NC(=O)[C@H](CC(C)C)NC(=O)[C@H](Cc1ccc(O)cc1)NC(=O)[C@@H](NC(=O)[C@H](CO)NC(=O)[C@H](Cc1ccc(O)cc1)NC(=O)[C@H](CC(=O)O)NC(=O)[C@H](CO)NC(=O)[C@@H](NC(=O)[C@H](Cc1ccccc1)NC(=O)[C@@H](NC(=O)CNC(=O)[C@H](CCC(=O)O)NC(=O)C(C)(C)CC(=O)NCCN1CCCCC1=O)[C@@H](C)O)[C@@H](C)O)[C@@H](C)CC)C(C)C)C(N)=O)C(=O)O [Compound 18]	101%	< 0.1 nM	101%	< 0.1 nM	2 (AUC score 2 = 26-50%)	80%	0.1 to 1 nM	80%	0.1 to 1 nM	< 10 nM	–	–	–	–	–
CCCCCCCCCCCCCCCC(=O)N[C@@H](CCC(=O)NCCCC[C@H](NC(=O)[C@H](CO)NC(=O)[C@@H]1CCCN1C(=O)[C@@H]1CCCN1C(=O)[C@@H]1CCCN1C(=O)[C@H](C)NC(=O)CNC(=O)[C@H](CO)NC(=O)[C@H](CO)NC(=O)[C@@H]1CCCN1C(=O)CNC(=O)CNC(=O)[C@H](C)NC(=O)[C@H](CC(C)C)NC(=O)[C@H](CC(C)C)NC(=O)[C@H](Cc1c[nH]c2ccccc12)NC(=O)[C@H](CC(N)=O)NC(=O)[C@@H](NC(=O)[C@H](Cc1ccccc1)NC(=O)[C@H](CCC(=O)O)NC(=O)C(C)(C)NC(=O)[C@H](C)NC(=O)[C@H](C)NC(=O)[C@H](CCC(N)=O)NC(=O)[C@H](CCCCN)NC(=O)[C@H](CC(=O)O)NC(=O)[C@H](CC(C)C)NC(=O)[C@H](Cc1ccc(O)cc1)NC(=O)[C@@H](NC(=O)[C@H](CO)NC(=O)[C@H](Cc1ccc(O)cc1)NC(=O)[C@H](CC(=O)O)NC(=O)[C@H](CO)NC(=O)[C@@H](NC(=O)[C@H](Cc1ccccc1)NC(=O)[C@@H](NC(=O)CNC(=O)[C@H](CCC(=O)O)NC(=O)CSCC(=O)NCCN1C(=O)COC1=O)[C@@H](C)O)[C@@H](C)O)[C@@H](C)CC)C(C)C)C(N)=O)C(=O)O [Compound 59]	108%	< 0.1 nM	108%	< 0.1 nM	3 (AUC score 3 = 51-75%)	31%	1 to 10 nM	31%	1 to 10 nM	–	–	–	–	–	–
CCCCCCCCCCCCCCCC(=O)N[C@@H](CCC(=O)NCCCC[C@H](NC(=O)[C@H](CO)NC(=O)[C@@H]1CCCN1C(=O)[C@@H]1CCCN1C(=O)[C@@H]1CCCN1C(=O)[C@H](C)NC(=O)CNC(=O)[C@H](CO)NC(=O)[C@H](CO)NC(=O)[C@@H]1CCCN1C(=O)CNC(=O)CNC(=O)[C@H](C)NC(=O)[C@H](CC(C)C)NC(=O)[C@H](CC(C)C)NC(=O)[C@H](Cc1c[nH]c2ccccc12)NC(=O)[C@H](CC(N)=O)NC(=O)[C@@H](NC(=O)[C@H](Cc1ccccc1)NC(=O)[C@H](CCC(=O)O)NC(=O)C(C)(C)NC(=O)[C@H](C)NC(=O)[C@H](C)NC(=O)[C@H](CCC(N)=O)NC(=O)[C@H](CCCCN)NC(=O)[C@H](CC(=O)O)NC(=O)[C@H](CC(C)C)NC(=O)[C@H](Cc1ccc(O)cc1)NC(=O)[C@@H](NC(=O)[C@H](CO)NC(=O)[C@H](Cc1ccc(O)cc1)NC(=O)[C@H](CC(=O)O)NC(=O)[C@H](CO)NC(=O)[C@@H](NC(=O)[C@H](Cc1ccccc1)NC(=O)[C@@H](NC(=O)CNC(=O)[C@H](CCC(=O)O)NC(=O)C(C)(C)NC(=O)CN1CCCCC1=O)[C@@H](C)O)[C@@H](C)O)[C@@H](C)CC)C(C)C)C(N)=O)C(=O)O [Compound 209]	–	–	94%	< 0.1 nM	–	–	–	27%	10 to 100 nM	10 to 1000 nM	–	–	–	–	–
CCCCCCCCCCCCCCCC(=O)N[C@@H](CCC(=O)NCCCC[C@H](NC(=O)[C@H](CO)NC(=O)[C@@H]1CCCN1C(=O)[C@@H]1CCCN1C(=O)[C@@H]1CCCN1C(=O)[C@H](C)NC(=O)CNC(=O)[C@H](CO)NC(=O)[C@H](CO)NC(=O)[C@@H]1CCCN1C(=O)CNC(=O)CNC(=O)[C@H](C)NC(=O)[C@H](CC(C)C)NC(=O)[C@H](CC(C)C)NC(=O)[C@H](Cc1c[nH]c2ccccc12)NC(=O)[C@H](CC(N)=O)NC(=O)[C@@H](NC(=O)[C@H](Cc1ccccc1)NC(=O)[C@H](CCC(=O)O)NC(=O)C(C)(C)NC(=O)[C@H](C)NC(=O)[C@H](C)NC(=O)[C@H](CCC(N)=O)NC(=O)[C@H](CCCCN)NC(=O)[C@H](CC(=O)O)NC(=O)[C@H](CC(C)C)NC(=O)[C@H](Cc1ccc(O)cc1)NC(=O)[C@@H](NC(=O)[C@H](CO)NC(=O)[C@H](Cc1ccc(O)cc1)NC(=O)[C@H](CC(=O)O)NC(=O)[C@H](CO)NC(=O)[C@@H](NC(=O)[C@H](Cc1ccccc1)NC(=O)[C@@H](NC(=O)CNC(=O)[C@H](CCC(=O)O)NC(=O)C(C)(C)CNC(=O)CCN1CCCCC1=O)[C@@H](C)O)[C@@H](C)O)[C@@H](C)CC)C(C)C)C(N)=O)C(=O)O [Compound 4]	100%	0.1 to 1 nM	100%	< 0.1 nM	–	23%	1 to 10 nM	23%	10 to 100 nM	10 to 1000 nM	–	–	–	–	–
CC[C@H](C)[C@H](NC(=O)[C@H](CO)NC(=O)[C@H](Cc1ccc(O)cc1)NC(=O)[C@H](CC(=O)O)NC(=O)[C@H](CO)NC(=O)[C@@H](NC(=O)[C@H](Cc1ccccc1)NC(=O)[C@@H](NC(=O)CNC(=O)[C@H](CCC(=O)O)NC(=O)CSCC(=O)NCCN1C(=O)c2ccccc2C1=O)[C@@H](C)O)[C@@H](C)O)C(=O)N[C@@H](Cc1ccc(O)cc1)C(=O)N[C@@H](CC(C)C)C(=O)N[C@@H](CC(=O)O)C(=O)N[C@@H](CCCNC(=N)N)C(=O)N[C@@H](CCC(N)=O)C(=O)N[C@@H](C)C(=O)N[C@@H](C)C(=O)NC(C)(C)C(=O)N[C@@H](CCC(=O)O)C(=O)N[C@@H](Cc1ccccc1)C(=O)N[C@H](C(=O)N[C@@H](CC(N)=O)C(=O)N[C@@H](Cc1c[nH]c2ccccc12)C(=O)N[C@@H](CC(C)C)C(=O)N[C@@H](CC(C)C)C(=O)N[C@@H](C)C(=O)NCC(=O)NCC(=O)N1CCC[C@H]1C(=O)N[C@@H](CO)C(=O)N[C@@H](CO)C(=O)NCC(=O)N[C@@H](C)C(=O)N1CCC[C@H]1C(=O)N1CCC[C@H]1C(=O)N1CCC[C@H]1C(=O)N[C@@H](CO)C(N)=O)C(C)C [Compound 190] (X1-EGTFTSDYSIYLDRQAA[Aib]EFVNWLLAGGPSSGAPPPS-NH2)	97 to 119%	–	97 to 119%	–	–	88 to 119%	–	88 to 119%	–	–	1 to 10 nM	1 to 10 nM	0.1 to 10 nM	0.1 to 10 nM	> 1000 nM
